Measured values as given in ChEMBL document CHEMBL1123432, “Methotrexate analogues. 28. Synthesis and biological evaluation of new gamma-monoamides of aminopterin and methotrexate” (J Med Chem, 1986).
Several values for one entry are separate records, joined by “and”; a condition that tells them apart may be missing. Identical values can stand only once.

Columns and labels:
L1210 [1] = assay: Compound was tested for its inhibitory concentration to inhibit the growth of wild type L1210 cells.; format: functional, cell-based, Mus musculus
Dihydrofolate reductase [2] = molecular target: T1, Dihydrofolate reductase (Mus musculus, UniProt P00375); assay: Compound was tested for its inhibitory concentration to inhibit the enzyme Dihydro Folate Reductase ( DHFR ) from murine L1210 leukemia cells.; format: cell-based
T1 sequence (P00375 whole entry): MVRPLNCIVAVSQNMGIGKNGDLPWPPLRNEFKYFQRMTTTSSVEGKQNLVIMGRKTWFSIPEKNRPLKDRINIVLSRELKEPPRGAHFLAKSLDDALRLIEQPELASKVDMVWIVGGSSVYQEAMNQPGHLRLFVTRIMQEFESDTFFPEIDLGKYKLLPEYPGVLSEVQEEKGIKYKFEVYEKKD

L1210 [3] = assay: Compound was tested for its inhibitory concentration to inhibit the growth of wild type L1210 cells and a subline ( L1210 / R81 ).; format: functional, cell-based; details: Mus musculus
Mus musculus [4] = species on record: Mus musculus; assay: Compound was tested against weight change in mice with L1210 leukemia cells on 7 th Day at Dose 15 mg / kg; format: functional; details: at 15 mg/kg
Mus musculus [5] = species on record: Mus musculus; assay: Compound was tested against weight change in mice with L1210 leukemia cells on 10 th Day at Dose 7.5 mg / kg; details: at 7.5 mg/kg
Dihydrofolate reductase [6] = molecular target: T1, Dihydrofolate reductase; assay: biochemical
Description: Compound was tested for its inhibitory concentration to inhibit the enzyme Dihydro Folate Reductase (DHFR) from murine L1210 leukemia cells.

Mus musculus [7] = assay: Median Survival days of mice infected with L1210 leukemia cells at dose 7.5 mg/kg relative to that of 10 days for control in expt 2; format: functional
Mus musculus [8] = assay: Median Survival days of mice infected with L1210 leukemia cells at dose 15 mg/kg relative to that of 10 days for control in expt 2; format: functional
Mus musculus [9] = assay: Median Survival days of mice infected with L1210 leukemia cells at dose 10 mg/kg relative to that of 10 days for control in expt 2; format: functional
Mus musculus [10] = assay: Increase in life span of mice with L1210 leukemia cells at a dose of 10 mg/kg in exp 2; format: functional
Mus musculus [11] = species on record: Mus musculus; assay: Compound was tested against weight change in mice with L1210 leukemia cells on 10 th Day at Dose 20 mg / kg; details: at 20 mg/kg
Mus musculus [12] = assay: Increase in life span of mice with L1210 leukemia cells at a dose of 7.5 mg/kg in exp 2; format: functional
Homo sapiens [13] = species on record: Homo sapiens; assay: Compound was tested for its inhibitory concentration against human leukemic lymphoblasts (CEM Cells); Mean of two assays; format: functional; details: CCRF-CEM
L1210 [14] = assay: Compound was tested for its inhibitory concentration to inhibit the growth of wild type L1210 cells and a subline (L1210 / R81).; format: functional, cell-based; details: Mus musculus
Mus musculus [15] = assay: Median Survival days of mice infected with L1210 leukemia cells at dose 10 mg/kg relative to that of 9 days for control in expt 1; format: functional
Mus musculus [16] = assay: Increase in life span of mice with L1210 leukemia cells at a dose of 15 mg/kg in exp 2; format: functional
[17] = molecular target: T2, Dihydrofolate reductase (Mus musculus) (UniProt P00375); details: L1210
T2 sequence (whole entry): T1 sequence (P00375 whole entry)
Description: Compound was tested for inhibition of the enzyme DiHydroFolate Reductase (DHFR) from murine L1210 leukemia cells

Mus musculus [18] = species on record: Mus musculus; assay: Compound was tested against weight change in mice with L1210 leukemia cells on 7 th Day at Dose 10 mg / kg; format: functional; details: at 10 mg/kg
Homo sapiens [19] = species on record: Homo sapiens; assay: Compound was tested for its inhibitory concentration against human leukemic lymphoblasts (CEM Cells) and a resistant subline (CEM / MTX); Mean of two assays; format: functional; details: CCRF-CEM
Mus musculus [20] = assay: Median Survival days of mice infected with L1210 leukemia cells at dose 20 mg/kg relative to that of 9 days for control in expt 1; format: functional
Mus musculus [21] = species on record: Mus musculus; assay: Compound was tested against weight change in mice with L1210 leukemia cells on 10 th Day at Dose 40 mg / kg; details: at 40 mg/kg
Mus musculus [22] = assay: Median Survival days of mice infected with L1210 leukemia cells at dose 20 mg/kg relative to that of 9 days for control; format: functional
Mus musculus [23] = assay: Increase in life span of mice with L1210 leukemia cells at a dose of 40 mg/kg; format: functional
Mus musculus [24] = assay: Median Survival days of mice infected with L1210 leukemia cells at dose 80 mg/kg relative to that of 9 days for control; format: functional
Homo sapiens [25] = species on record: Homo sapiens; assay: Compound was tested for its inhibitory concentration against human leukemic lymphoblasts (CEM Cells) and a resistant subline (CEM / MTX).; format: functional; details: CCRF-CEM
L1210 [26] = assay: Compound was tested for its inhibitory concentration to inhibit the growth of wild type L1210 cells; format: functional, cell-based; details: Mus musculus
L1210 [27] = assay: Compound was tested for its inhibitory concentration to inhibit the growth of wild type L1210 cells and a subline (L1210 / R81); Mean of two assays; format: functional, cell-based; details: Mus musculus
Mus musculus [28] = species on record: Mus musculus; assay: Compound was tested against weight change in mice with L1210 leukemia cells on 10 th Day at Dose 80 mg / kg; details: at 80 mg/kg
Mus musculus [29] = assay: Median Survival days of mice infected with L1210 leukemia cells at dose 40 mg/kg relative to that of 9 days for control; format: functional
Mus musculus [30] = assay: Increase in life span of mice with L1210 leukemia cells at a dose of 80 mg/kg; format: functional
Mus musculus [31] = assay: Increase in life span of mice with L1210 leukemia cells at a dose of 20 mg/kg; format: functional
Homo sapiens [32] = species on record: Homo sapiens; assay: Compound was tested for its inhibitory concentration against human leukemic lymphoblasts (CEM Cells).; format: functional; details: CCRF-CEM

Row | SMILES | IC50 (L1210 [1]; l1210) | IC50 (Dihydrofolate reductase [2]) [nM] | IC50 (L1210 [3]) [nM] | IC50 (Dihydrofolate reductase [6]) [nM] | IC50 (L1210 [1]; Mus musculus, L1210) [nM] | Weight change (Mus musculus [11]) [%] | IC50 (Homo sapiens [13]) [nM] | IC50 (L1210 [14]) [nM] | IC50/[E] [17] | Survival (Mus musculus [22]) [days] | ILS at 40 mg/kg (Mus musculus [23]) [%] | Survival (Mus musculus [24]) [days] | IC50 (Homo sapiens [25]) [nM] | Weight change (Mus musculus [28]) [%] | Survival (Mus musculus [29]) [days] | ILS at 80 mg/kg (Mus musculus [30]) [%] | ILS at 20 mg/kg (Mus musculus [31]) [%] | other results
1 | CN(Cc1cnc2nc(N)nc(N)c2n1)c1ccc(C(=O)NC(CCC(=O)Nc2ccc(O)c(O)c2)C(=O)O)cc1 (stereo not given) | 30 nM and 8.4 nM | 31 | 38000 |  |  |  |  |  |  |  |  |  |  |  |  |  |  | 
2 | Nc1nc(N)c2nc(CNc3ccc(C(=O)NC(CCC(=O)Nc4ccccc4)C(=O)O)cc3)cnc2n1 (stereo not given) | 3.6 nM |  |  | 60 | 3.5 | 0 | 180 | 10000 | 1.5 |  |  |  |  |  |  |  |  | Weight change (Mus musculus [4]): 2%; Weight change (Mus musculus [5]): 4%; Survival (Mus musculus [7]): 13 days; Survival (Mus musculus [8]): 13 days; Survival (Mus musculus [9]): 15 days; ILS at 10 mg/kg (Mus musculus [10]): 50%; ILS at 7.5 mg/kg (Mus musculus [12]): 30%; Survival (Mus musculus [15]): 12 days; ILS at 15 mg/kg (Mus musculus [16]): 30%; Weight change (Mus musculus [18]): 17% and 6%; IC50 (Homo sapiens [19]): 4700 nM; Survival (Mus musculus [20]): 12 days
3 | CC(C)(C)NC(=O)CCC(NC(=O)c1ccc(NCc2cnc3nc(N)nc(N)c3n2)cc1)C(=O)O (stereo not given) |  |  |  | 44 | 120 | 17 | 5800 |  | 1.1 | 9 | 11 | 11 | 36000 | 9 | 10 | 22 | 0 | Weight change (Mus musculus [21]): 7%; IC50 (L1210 [26]): 32 nM; IC50 (L1210 [27]): 22000 nM
4 | Nc1nc(N)c2nc(CNc3ccc(C(=O)NC(CCC(=O)Nc4ccc(O)c(O)c4)C(=O)O)cc3)cnc2n1 (stereo not given) | 37 nM and 6 nM | 57 | 23000 |  |  |  |  |  |  |  |  |  |  |  |  |  |  | 
5 | Nc1nc(N)c2nc(CNc3ccc(C(=O)NC(CCC(=O)N[C@]45C[C@H]6C[C@H](C[C@H](C6)C4)C5)C(=O)O)cc3)cnc2n1 (stereo not given in full) | 510 nM |  |  | 100 | 680 |  |  | 25000 | 2.5 | 8 | 0 | 10 | 16000 | 17 | 9 | 22 | -11 | IC50 (Homo sapiens [32]): 4500 nM
